Numbered stars: 1 amine (or outer) side, 2 acyl side, 3 side chain; on linkers, the order of the positions; unused ones are H or OH. Square brackets hold non-standard residues; d marks the D form. Side chains are listed from the residue outwards. Peptide text beside a SMILES is read from it. * marks the point of attachment. Isobutyryl(2-(3-CN-5-F-Ph)) = CC(C)(C(=O)*)c1cc(F)cc(C#N)c1; C20 diacid = O=C(O)CCCCCCCCCCCCCCCCCCC(=O)*; γGlu = O=C(O)[C@H](CCC(=O)[*:2])N[*:1]; AEEA = NCCOCCOCC(=O)O; Aib = CC(C)(N)C(=O)O; βAla = NCCC(=O)O
Assay: Phase 1 MD Cohorts 11 and 12: pharmacokinetics
Settings: human, in vivo, SC QW
Source text: The secondary objectives of this study are: • To evaluate the pharmacokinetics of CT-388 across 12 consecutive weekly doses for Cohorts 11 and 14 (and additionally, up to 24 weeks for Cohorts 12 and 13); and • To evaluate the PD effect of CT-388 across 12 consecutive weekly doses for Cohorts 11 and 14 (and additionally up to 24 weeks for Cohorts 12 and 13) on body weight and glucose homeostasis in both the fasted state and in the setting of an OGTT in participants with or without T2DM. […] Cohorts 11 and 12 included participants who were obese without T2DM and cohort 13 included patients who were obese with T2DM. Endpoints of this study were safety, including TEAEs, labs, vitals and ECGs; PK, including CT-388 PK concentrations and parameters; and key PD endpoints, including week 12 ([…]) and week 24 ([…]): • a. body weight: % change; absolute change; • b. change in HbA1c, fasting glucose, fasting insulin, HOMA-IR; and • c. waist and hip circumference.

CC[C@H](C)[C@H](NC(=O)[C@H](CC(C)C)NC(=O)[C@H](Cc1c[nH]c2ccccc12)NC(=O)[C@H](CCC(N)=O)NC(=O)[C@@H](NC(=O)[C@H](Cc1ccccc1)NC(=O)[C@H](C)NC(=O)[C@H](CCCCNC(=O)COCCOCCNC(=O)COCCOCCNC(=O)CC[C@H](NC(=O)CCCCCCCCCCCCCCCCCCC(=O)O)C(=O)O)NC(=O)[C@H](CCC(N)=O)NC(=O)[C@H](C)NC(=O)[C@@H](NC(=O)[C@H](CCCCN)NC(=O)[C@H](CC(=O)O)NC(=O)[C@H](CC(C)C)NC(=O)C(C)(C)NC(=O)[C@@H](NC(=O)[C@H](CO)NC(=O)[C@H](Cc1ccc(O)cc1)NC(=O)[C@H](CC(=O)O)NC(=O)[C@H](CO)NC(=O)[C@@H](NC(=O)[C@H](Cc1ccccc1)NC(=O)[C@@H](NC(=O)CNC(=O)[C@H](CCC(=O)O)NC(=O)CCNC(=O)C(C)(C)c1cc(F)cc(C#N)c1)[C@@H](C)O)[C@@H](C)O)[C@@H](C)CC)[C@@H](C)CC)C(C)C)C(=O)N[C@@H](C)C(=O)NCC(=O)NCC(=O)N1CCC[C@H]1C(=O)N[C@@H](CO)C(=O)N[C@@H](CO)C(=O)NCC(=O)N[C@@H](C)C(=O)N1CCC[C@H]1C(=O)N1CCC[C@H]1C(=O)N1CCC[C@H]1C(=O)N[C@@H](CO)C(N)=O [CT-388] ({Isobutyryl(2-(3-CN-5-F-Ph))-βAla}-EGTFTSDYSI[Aib]LDKIAQK([AEEA-AEEA-γGlu-C20 diacid])AFVQWLIAGGPSSGAPPPS-NH2)
half-life: ~150 h
